This note sets out measurements from US10787452B2 (Vertex Pharmaceuticals Incorporated, priority 2012, dated 2020).

SMILES strings stand for the structures.

The test deals with HCT116 colorectal cancer cells. The test can be described thus: Cisplatin sensitization assay (96 h cell viability MTS).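 Further: compound concentration needed to lower the Cisplatin-alone IC50 by a set fold.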 The test is classed as cell-based. The settings on record: 96 h MTS, compound plus Cisplatin. The procedure:
Compounds can be screened for their ability to sensitize HCT116 colorectal cancer cells to Cisplatin using a 96 h cell viability (MTS) assay. […] Compounds and Cisplatin are then both added simultaneously to the cell media in 2-fold serial dilutions from a top final concentration of 10 μM as a full matrix of concentrations in a final cell volume of 200 μl, and the cells are then incubated at 37° C. in 5% CO2. After 96 h, 40 μl of MTS reagent (Promega G358a) is added to each well and the cells are incubated for 1 h at 37° C. in 5% CO2.

For `Nc1nn2cc(F)cnc2c1C(=O)Nc1cncc(Cl)c1N1CCC(C(=O)N2CCN3CCC2CC3)CC1` [I-G-66, N-(4-(4-(1,4-diazabicyclo[3.2.2]nonane-4-carbonyl)piperidin-1-yl)-5-chloropyridin-3-yl)-2-amino-6-fluoropyrazolo[1,5-a]pyrimidine-3-carboxamide], the “Cisplatin Sensitization Assay” value is given as “+++ (Compounds with a Cisplatin sensitization value of <0.02 μM are marked with “+++.”)”. The same measure for `COC1(CN(C)C)CCN(c2ccncc2NC(=O)c2c(N)nn3cc(Cl)cnc23)CC1` [I-N-46, 2-amino-6-chloro-N-(4-(4-((dimethylamino)methyl)-4-methoxypiperidin-1-yl)pyridin-3-yl)pyrazolo[1,5-a]pyrimidine-3-carboxamide]: “+++ (Compounds with a Cisplatin sensitization value of <0.02 μM are marked with “+++.”)”; for `Nc1nn2cc(F)cnc2c1C(=O)Nc1cnccc1N1CCN2C(=O)CCCC2C1` (stereo not drawn) [I-N-244, 2-amino-6-fluoro-N-(4-(6-oxohexahydro-1H-pyrido[1,2-a]pyrazin-2(6H)-yl)pyridin-3-yl)pyrazolo[1,5-a]pyrimidine-3-carboxamide]: “+++ (Compounds with a Cisplatin sensitization value of <0.02 μM are marked with “+++.”)”. Next, `Nc1nn2cc(Cl)cnc2c1C(=O)Nc1cnccc1OCCN1CCOCC1` [I-O-60, 2-amino-6-chloro-N-(4-(2-morpholinoethoxy)pyridin-3-yl)pyrazolo[1,5-a]pyrimidine-3-carboxamide]: “++ (Compounds with a Cisplatin sensitization value >0.02 μM but <0.2 μM are marked with “++.”)”; `CN1CCC[C@@H]1C(=O)N1CCN(c2c(F)cncc2NC(=O)c2c(N)nn3cc(F)cnc23)CC1` [I-N-181, (R)-2-amino-6-fluoro-N-(5-fluoro-4-(4-(1-methylpyrrolidine-2-carbonyl)piperazin-1-yl)pyridin-3-yl)pyrazolo[1,5-a]pyrimidine-3-carboxamide]: “+++ (Compounds with a Cisplatin sensitization value of <0.02 μM are marked with “+++.”)”. The same measure for `Nc1nn2cc(F)cnc2c1C(=O)Nc1cncc(F)c1N1CCN(C(=O)C2COC2)CC1` [I-N-278, 2-amino-6-fluoro-N-(5-fluoro-4-(4-(oxetane-3-carbonyl)piperazin-1-yl)pyridin-3-yl)pyrazolo[1,5-a]pyrimidine-3-carboxamide]: “+++ (Compounds with a Cisplatin sensitization value of <0.02 μM are marked with “+++.”)”; for `Nc1nn2cc(Cl)cnc2c1C(=O)Nc1cnccc1N1CCC(N2CCC23COC3)CC1` [I-N-109, N-(4-(4-(6-oxa-1-azaspiro[3.3]heptan-1-yl)piperidin-1-yl)pyridin-3-yl)-2-amino-6-chloropyrazolo[1,5-a]pyrimidine-3-carboxamide]: “+++ (Compounds with a Cisplatin sensitization value of <0.02 μM are marked with “+++.”)”.

Consider `Nc1nn2cc(Cl)cnc2c1C(=O)Nc1cnccc1N1CCNCC1` [I-N-88, 2-amino-6-chloro-N-(4-(piperazin-1-yl)pyridin-3-yl)pyrazolo[1,5-a]pyrimidine-3-carboxamide], for which the “Cisplatin Sensitization Assay” value is recorded as “++ (Compounds with a Cisplatin sensitization value >0.02 μM but <0.2 μM are marked with “++.”)”. Regarding `Cc1nc(C(F)(F)F)cn1-c1ccncc1NC(=O)c1c(N)nn2cc(F)cnc12` [I-N-30, 2-amino-6-fluoro-N-(4-(2-methyl-4-(trifluoromethyl)-1H-imidazol-1-yl)pyridin-3-yl)pyrazolo[1,5-a]pyrimidine-3-carboxamide], the “Cisplatin Sensitization Assay” value is given as “++ (Compounds with a Cisplatin sensitization value >0.02 μM but <0.2 μM are marked with “++.”)”. Next, `N#CCc1cnc2c(C(=O)Nc3cnccc3N3CCC(N)CC3)c(N)nn2c1` [I-N-2, 2-amino-N-(4-(4-aminopiperidin-1-yl)pyridin-3-yl)-6-(cyanomethyl)pyrazolo[1,5-a]pyrimidine-3-carboxamide]: “+++ (Compounds with a Cisplatin sensitization value of <0.02 μM are marked with “+++.”)”; `Nc1nn2cc(Cl)cnc2c1C(=O)Nc1cnccc1OC1CCNCC1` [I-O-80, 2-amino-6-chloro-N-(4-(piperidin-4-yloxy)pyridin-3-yl)pyrazolo[1,5-a]pyrimidine-3-carboxamide]: “+++ (Compounds with a Cisplatin sensitization value of <0.02 μM are marked with “+++.”)”; `CS(=O)(=O)C1CN(C(=O)C2CCN(c3ccncc3NC(=O)c3c(N)nn4cc(F)cnc34)CC2)C1` [I-G-89, 2-amino-6-fluoro-N-(4-(4-(3-(methylsulfonyl)azetidine-1-carbonyl)piperidin-1-yl)pyridin-3-yl)pyrazolo[1,5-a]pyrimidine-3-carboxamide]: “+ (Compounds with a Cisplatin sensitization value >0.2 μM but <5 μM are marked with “+.”)”. Next, `CN1CCC(c2ccncc2NC(=O)c2c(N)nn3cc(F)cnc23)CC1` [I-C-1, 2-amino-6-fluoro-N-(4-(1-methylpiperidin-4-yl)pyridin-3-yl)pyrazolo[1,5-a]pyrimidine-3-carboxamide]: “++ (Compounds with a Cisplatin sensitization value >0.02 μM but <0.2 μM are marked with “++.”)”. The same measure for `Nc1nn2cc(Cl)cnc2c1C(=O)Nc1cnccc1N1CCC(N2CCn3cncc3C2)CC1` [I-N-101, 2-amino-6-chloro-N-(4-(4-(5,6-dihydroimidazo[1,5-a]pyrazin-7(8H)-yl)piperidin-1-yl)pyridin-3-yl)pyrazolo[1,5-a]pyrimidine-3-carboxamide]: “++ (Compounds with a Cisplatin sensitization value >0.02 μM but <0.2 μM are marked with “++.”)”. In the case of `CC(C)(O)C1CCN(c2ccncc2NC(=O)c2c(N)nn3cc(Cl)cnc23)CC1` [I-N-69, 2-amino-6-chloro-N-(4-(4-(2-hydroxypropan-2-yl)piperidin-1-yl)pyridin-3-yl)pyrazolo[1,5-a]pyrimidine-3-carboxamide], the “Cisplatin Sensitization Assay” value is given as “+++ (Compounds with a Cisplatin sensitization value of <0.02 μM are marked with “+++.”)”. Next, `Nc1nn2cc(F)cnc2c1C(=O)Nc1cncc(F)c1N1CCC(C(=O)N2CCN(C3COC3)CC2)CC1` [I-G-32, 2-amino-6-fluoro-N-[5-fluoro-4-[4-[4-(oxetan-3-yl)piperazine-1-carbonyl]-1-piperidyl]-3-pyridyl]pyrazolo[1,5-a]pyrimidine-3-carboxamide]: “+++ (Compounds with a Cisplatin sensitization value of <0.02 μM are marked with “+++.”)”. Next, `Nc1nn2cc(F)cnc2c1C(=O)Nc1cnccc1-c1ccc(C(=O)N2CCN(C3COC3)CC2)nc1` [I-C-52, 2-amino-6-fluoro-N-(6-(4-(oxetan-3-yl)piperazine-1-carbonyl)-[3,4′-bipyridin]-3′-yl)pyrazolo[1,5-a]pyrimidine-3-carboxamide]: “++ (Compounds with a Cisplatin sensitization value >0.02 μM but <0.2 μM are marked with “++.”)”; `Nc1nn2cc(F)cnc2c1C(=O)Nc1cncc(F)c1N1CCC(OCCN2CCCC2)CC1` [I-N-167, 2-amino-6-fluoro-N-(5-fluoro-4-(4-(2-(pyrrolidin-1-yl)ethoxy)piperidin-1-yl)pyridin-3-yl)pyrazolo[1,5-a]pyrimidine-3-carboxamide]: “+++ (Compounds with a Cisplatin sensitization value of <0.02 μM are marked with “+++.”)”.
